Results as given in US9120833B2, “Polyfluoroalkylphosphonic acid ester and process for producing the same” (Unimatec Co., Ltd., priority 2009, dated 2015).

Conditions: 3 wt. % in base oil CnF2n+1(CF2CF2CF2O)mCnF2n+1 (viscosity at 40° C.: 210 mm^2/s), stirred under heating, stored at 25° C. for 24 hours
Description: The phosphonic acid ester (3 wt. %) obtained in Example 1 or 7 was added to a base oil of the formula: CnF2n+1(CF2CF2CF2O)mCnF2n+1 (viscosity at 40° C.: 210 mm^2/s), and the mixture was sufficiently stirred under heating. After the mixture was stored at 25° C. for 24 hours, the solubility of the phosphonic acid ester in the base oil was visually observed.

CCOP(=O)(CCC(F)(F)C(F)(F)C(F)(F)C(F)(F)C(F)(F)CC(F)(F)C(F)(F)C(F)(F)C(F)(F)F)OCC [Example 1, CF3(CF2)3(CH2CF2)(CF2CF2)2(CH2CH2)P(O)(OCH2CH3)2]
solubility of the phosphonic acid ester in the base oil (visually observed): dissolved into an almost transparent solution
